The values below come from US10377753B2, “Substituted 4-azaindoles and their use as GluN2B receptor modulators” (Janssen Pharmaceutica NV, priority 2015, dated 2019).

Chain of cloned human NR1/NR2B ion channels (Q13224 27-1484, other chains not shown): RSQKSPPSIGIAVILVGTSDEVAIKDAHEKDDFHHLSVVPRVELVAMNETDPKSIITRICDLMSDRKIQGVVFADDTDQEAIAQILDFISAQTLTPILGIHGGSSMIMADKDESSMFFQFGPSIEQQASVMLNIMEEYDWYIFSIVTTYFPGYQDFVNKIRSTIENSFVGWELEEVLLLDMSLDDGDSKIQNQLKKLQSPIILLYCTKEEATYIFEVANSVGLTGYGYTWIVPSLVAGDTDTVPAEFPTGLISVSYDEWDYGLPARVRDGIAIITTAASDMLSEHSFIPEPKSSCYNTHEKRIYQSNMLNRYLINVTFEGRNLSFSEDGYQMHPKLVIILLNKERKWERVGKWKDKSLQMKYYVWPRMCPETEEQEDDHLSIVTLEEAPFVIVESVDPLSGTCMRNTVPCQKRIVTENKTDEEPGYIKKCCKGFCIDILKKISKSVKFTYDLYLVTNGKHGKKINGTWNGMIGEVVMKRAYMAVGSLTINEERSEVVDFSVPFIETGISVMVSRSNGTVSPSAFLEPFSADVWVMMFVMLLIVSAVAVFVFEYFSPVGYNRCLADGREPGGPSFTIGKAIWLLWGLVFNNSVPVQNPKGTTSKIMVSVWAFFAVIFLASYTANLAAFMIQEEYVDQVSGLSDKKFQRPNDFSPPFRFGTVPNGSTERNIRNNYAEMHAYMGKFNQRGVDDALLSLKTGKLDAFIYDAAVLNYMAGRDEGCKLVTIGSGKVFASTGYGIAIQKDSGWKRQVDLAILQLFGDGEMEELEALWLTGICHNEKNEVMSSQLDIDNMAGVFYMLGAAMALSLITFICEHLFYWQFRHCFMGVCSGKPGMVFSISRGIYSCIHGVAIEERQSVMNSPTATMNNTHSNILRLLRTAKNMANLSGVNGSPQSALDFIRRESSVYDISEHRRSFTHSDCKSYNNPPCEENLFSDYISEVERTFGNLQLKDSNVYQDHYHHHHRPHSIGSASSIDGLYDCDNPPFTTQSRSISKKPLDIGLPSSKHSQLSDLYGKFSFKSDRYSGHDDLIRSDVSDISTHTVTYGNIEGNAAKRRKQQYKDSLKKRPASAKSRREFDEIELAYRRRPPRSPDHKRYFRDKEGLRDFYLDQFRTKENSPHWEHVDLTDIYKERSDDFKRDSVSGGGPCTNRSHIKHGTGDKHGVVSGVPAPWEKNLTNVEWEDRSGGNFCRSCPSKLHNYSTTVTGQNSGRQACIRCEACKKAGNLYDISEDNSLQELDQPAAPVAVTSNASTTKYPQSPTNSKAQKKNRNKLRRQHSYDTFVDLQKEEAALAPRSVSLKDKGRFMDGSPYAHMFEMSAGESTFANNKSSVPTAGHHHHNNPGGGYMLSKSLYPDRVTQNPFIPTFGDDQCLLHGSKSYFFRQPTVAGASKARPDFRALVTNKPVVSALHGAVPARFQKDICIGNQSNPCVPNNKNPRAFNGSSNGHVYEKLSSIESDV

For this experiment, the target named is cloned human NR1/NR2B ion channels (Homo sapiens (Human), UniProt Q05586+Q13224). The experiment can be described thus: HNR2BC: effects of test articles on cloned human NR1/NR2B ion channels expressed in mammalian cells (FLIPR calcium flux). To be noted: cloned human NR1/NR2B ion channels, Table 5. Format: cell-based. The essentials:
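In a stable Tet-On-induced cell line expressing human GluN1/GluN2B, Calcium 5-loaded cells were preincubated 5 min with compound, then stimulated 5 min with glutamate at ~EC80 plus 10 μM glycine, in pH 7.4 HEPES buffer. FLIPR calcium fluorescence was normalized to control wells.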
A general note: Calcium flux is commonly read through the fluorescence of an indicator in the cells.
The term IC50 denotes the concentration that gives 50% inhibition. Regarding `Cc1c(F)ccc(-c2cnc3ccn(CC(=O)N(C)C)c3c2)c1F` [Example 447, 2-[6-(2,4-Difluoro-3-methyl-phenyl)pyrrolo[3,2-b]pyridin-1-yl]-N,N-dimethyl-acetamide], the IC50 is 20 nM.
For `CN(C)C(=O)Cn1ccc2ncc(-c3cccc(Cl)c3F)cc21` [Example 448, 2-[6-(3-Chloro-2-fluoro-phenyl)pyrrolo[3,2-b]pyridin-1-yl]-N,N-dimethyl-acetamide], the concentration for half-maximal inhibition (IC50) is 20 nM.
Consider `CCc1cccc(-c2cnc3ccn(CC(=O)N(C)C)c3c2)c1` [Example 449, 2-[6-(3-Ethylphenyl)pyrrolo[3,2-b]pyridin-1-yl]-N,N-dimethyl-acetamide], for which the IC50 was 63.1 nM.
For the compound `CN(C)C(=O)Cn1ccc2ncc(-c3cccc(F)c3)cc21` [Example 450, 2-[6-(3-Fluorophenyl)pyrrolo[3,2-b]pyridin-1-yl]-N,N-dimethyl-acetamide], the half-inhibitory concentration (IC50) was 39.8 nM.
With `Cc1cccc(-c2cnc3ccn(CC(=O)N4CCC4)c3c2)c1F` [Example 451, 1-(Azetidin-1-yl)-2-[6-(2-fluoro-3-methyl-phenyl)pyrrolo[3,2-b]pyridin-1-yl]ethanone], the IC50 was 50.1 nM.
Consider `Cc1c(F)ccc(-c2cnc3ccn(CC(=O)N4CCC4)c3c2)c1F` [Example 452, 1-(Azetidin-1-yl)-2-[6-(2,4-difluoro-3-methyl-phenyl)pyrrolo[3,2-b]pyridin-1-yl]ethanone], for which the IC50 is 25.1 nM.
For `O=C(Cn1ccc2ncc(-c3cccc(Cl)c3F)cc21)N1CCC1` [Example 453, 1-(Azetidin-1-yl)-2-[6-(3-chloro-2-fluoro-phenyl)pyrrolo[3,2-b]pyridin-1-yl]ethanone] the value was 25.1 nM.
Consider `Cc1cccc(-c2cnc3ccn(CC(=O)N4CC(F)C4)c3c2)c1F` [Example 454, 1-(3-Fluoroazetidin-1-yl)-2-[6-(2-fluoro-3-methyl-phenyl)pyrrolo[3,2-b]pyridin-1-yl]ethanone], for which the IC50 was 25.1 nM.
`O=C(Cn1ccc2ncc(-c3ccc(F)c(F)c3F)cc21)N1CC(F)C1` [Example 455, 1-(3-Fluoroazetidin-1-yl)-2-[6-(2,3,4-trifluorophenyl)pyrrolo[3,2-b]pyridin-1-yl]ethanone]: the IC50 was 31.6 nM.
The same measure for `O=C(Cn1ccc2ncc(-c3ccc(F)c(Cl)c3)cc21)N1CCC1` [Example 456, 1-(Azetidin-1-yl)-2-[6-(3-chloro-4-fluoro-phenyl)pyrrolo[3,2-b]pyridin-1-yl]ethanone]: 63.1 nM; for `O=C(Cn1ccc2ncc(-c3ccccc3F)cc21)N1CC(F)C1` [Example 457, 1-(3-Fluoroazetidin-1-yl)-2-[6-(2-fluorophenyl)pyrrolo[3,2-b]pyridin-1-yl]ethanone]: 15.8 nM; for `O=C(Cn1ccc2ncc(-c3cccc(C(F)F)c3)cc21)N1CC(F)C1` [Example 458, 2-[6-[3-(Difluoromethyl)phenyl]pyrrolo[3,2-b]pyridin-1-yl]-1-(3-fluoroazetidin-1-yl)ethanone]: 398 nM.
On to `CCN(C)C(=O)Cn1ccc2ncc(-c3cccc(C)c3)cc21` [Example 459, N-Ethyl-N-methyl-2-[6-(m-tolyl)pyrrolo[3,2-b]pyridin-1-yl]acetamide], for which the IC50 is 39.8 nM.
As to `Cc1c(F)ccc(-c2cnc3ccn(CC(=O)N4CC(F)C4)c3c2)c1F` [Example 460, 2-[6-(2,4-Difluoro-3-methyl-phenyl)pyrrolo[3,2-b]pyridin-1-yl]-1-(3-fluoroazetidin-1-yl)ethanone], the IC50 is 63.1 nM.
Consider `CCN(C)C(=O)Cn1ccc2ncc(-c3ccc(F)c(F)c3)cc21` [Example 461, 2-[6-(3,4-Difluorophenyl)pyrrolo[3,2-b]pyridin-1-yl]-N-ethyl-N-methyl-acetamide], for which the IC50 is 31.6 nM.
For the compound `CCN(C)C(=O)Cn1ccc2ncc(-c3cc(F)c(F)c(F)c3)cc21` [Example 462, N-Ethyl-N-methyl-2-[6-(3,4,5-trifluorophenyl)pyrrolo[3,2-b]pyridin-1-yl]acetamide], the IC50 is 126 nM.
For `O=C(Cn1ccc2ncc(-c3cccc(Cl)c3)cc21)N1CCC1` [Example 463, 1-(Azetidin-1-yl)-2-[6-(3-chlorophenyl)pyrrolo[3,2-b]pyridin-1-yl]ethanone] the value was 100 nM; for `CCN(C)C(=O)Cn1ccc2ncc(-c3cccc(C(F)(F)F)c3F)cc21` [Example 464, N-Ethyl-2-[6-[2-fluoro-3-(trifluoromethyl)phenyl]pyrrolo[3,2-b]pyridin-1-yl]-N-methyl-acetamide], 12.6 nM; for `O=C(Cn1ccc2ncc(-c3cccc(Cl)c3)cc21)N1CC(F)C1` [Example 465, 2-[6-(3-Chlorophenyl)pyrrolo[3,2-b]pyridin-1-yl]-1-(3-fluoroazetidin-1-yl)ethanone], 79.4 nM.
Consider `O=C(Cn1ccc2ncc(-c3cccc(Cl)c3F)cc21)N1CC(F)C1` [Example 466, 2-[6-(3-Chloro-2-fluoro-phenyl)pyrrolo[3,2-b]pyridin-1-yl]-1-(3-fluoroazetidin-1-yl)ethanone], for which the IC50 was 20 nM.
For `O=C(Cn1ccc2ncc(-c3ccc(F)c(Cl)c3)cc21)N1CC(F)C1` [Example 467, 2-[6-(3-Chloro-4-fluoro-phenyl)pyrrolo[3,2-b]pyridin-1-yl]-1-(3-fluoroazetidin-1-yl)ethanone], the IC50 was 63.1 nM.
As to `CCN(C)C(=O)Cn1ccc2ncc(-c3ccc(F)c(C)c3F)cc21` [Example 469, 2-[6-(2,4-Difluoro-3-methyl-phenyl)pyrrolo[3,2-b]pyridin-1-yl]-N-ethyl-N-methyl-acetamide], the IC50 was 15.8 nM.
As for `CCN(C)C(=O)Cn1ccc2ncc(-c3cccc(C(F)(F)F)c3)cc21` [Example 470, N-Ethyl-N-methyl-2-[6-[3-(trifluoromethyl)phenyl]pyrrolo[3,2-b]pyridin-1-yl]acetamide], the IC50 is 200 nM.
Regarding `O=C(Cn1cc(F)c2ncc(-c3ccccc3F)cc21)N1CCC1` [Example 471, 1-(Azetidin-1-yl)-2-[3-fluoro-6-(2-fluorophenyl)pyrrolo[3,2-b]pyridin-1-yl]ethanone], the IC50 is 100 nM.
For `Cc1cccc(-c2cnc3c(F)cn(CC(=O)N4CCC4)c3c2)c1F` [Example 472, 1-(Azetidin-1-yl)-2-[3-fluoro-6-(2-fluoro-3-methyl-phenyl)pyrrolo[3,2-b]pyridin-1-yl]ethanone], the IC50 is 200 nM.
Regarding `Cc1cccc(-c2cnc3c(F)cn(CC(=O)N4CCC4)c3c2)c1` [Example 473, 1-(Azetidin-1-yl)-2-[3-fluoro-6-(m-tolyl)pyrrolo[3,2-b]pyridin-1-yl]ethanone], the IC50 is 31.6 nM.
Consider `O=C(Cn1cc(F)c2ncc(-c3cc(F)cc(F)c3)cc21)N1CCC1` [Example 474, 1-(Azetidin-1-yl)-2-[6-(3,5-difluorophenyl)-3-fluoro-pyrrolo[3,2-b]pyridin-1-yl]ethanone], for which the IC50 was 31.6 nM.
For the compound `O=C(Cn1cc(F)c2ncc(-c3cccc(C(F)(F)F)c3)cc21)N1CCC1` [Example 475, 1-(Azetidin-1-yl)-2-[3-fluoro-6-[3-(trifluoromethyl)phenyl]pyrrolo[3,2-b]pyridin-1-yl]ethanone], the IC50 was 25.1 nM.
The same measure for `O=C(Cn1cc(F)c2ncc(-c3cccc(C(F)(F)F)c3F)cc21)N1CCC1` [Example 476, 1-(Azetidin-1-yl)-2-[3-fluoro-6-[2-fluoro-3-(trifluoromethyl)phenyl]pyrrolo[3,2-b]pyridin-1-yl]ethanone]: 50.1 nM.
